Measured values from patent publication US20230346773A1, “USE OF PCSK9 INHIBITOR IN PREPARATION OF PRODUCT FOR TREATING MULTIPLE DISEASES” (priority 2020, published 2023).
Marks after values point to notes of the source that are not given here.

B1: Evolocumab (antibody, chains of the INN, looked up, V domains shown)
VH: EVQLVQSGAEVKKPGASVKVSCKASGYTLTSYGISWVRQAPGQGLEWMGWVSFYNGNTNYAQKLQGRGTMTTDPSTSTAYMELRSLRSDDTAVYYCARGYGMDVWGQGTTVTVSS
VL: ESALTQPASVSGSPGQSITISCTGTSSDVGGYNSVSWYQQHPGKAPKLMIYEVSNRPSGVSNRFSGSKSGNTASLTISGLQAEDEADYYCNSYTSTSMVFGGGTKLTVL
notes: PCSK9 monoclonal antibody jointly developed by Amgen and Astellas, trade name Repatha

What was measured:
[1] = system: androgenetic alopecia (SA) rat model; experiment: Androgenetic alopecia (SA) rat model induced by testosterone propionate; assay type: in vivo, Wistar rats; settings: for Skin hair follicles and sebaceous glands: number of rats graded ++ / Skin hair follicles and sebaceous glands: number of rats graded ± / Skin hair follicles and sebaceous glands: number of rats graded + / Skin hair follicles and sebaceous glands: number of rats graded − / Skin hair follicles and sebaceous glands: number of rats graded +++: 10 rats, after 60 days; for Skin hair follicles and sebaceous glands: number of rats graded ++: few follicles with cystic degeneration, sebaceous glands mild hyperplasia and hypertrophy; for Skin hair follicles and sebaceous glands: number of rats graded ±: no hyperplasia in the dermis, limited lesions of hair follicles and sebaceous glands, no subcutaneous inflammation; for Skin hair follicles and sebaceous glands: number of rats graded +: no obvious hyperplasia in dermis, obviously cystic follicles, no inflammation; for Skin hair follicles and sebaceous glands: number of rats graded −: normal skin dermal tissue cells, subcutaneous hair follicles and sebaceous glands; for Skin hair follicles and sebaceous glands: number of rats graded +++: segmental hyperplasia, degenerated follicles, hyperplasia of sebaceous glands, mild inflammatory hyperplasia; for 15 d hair length / 30 d hair length / 45 d hair length / 60 d hair length: rats; for 15 d hair length: 15 days after administration; for 30 d hair length: 30 days after administration; for 45 d hair length: 45 days after administration; for 60 d hair length: 60 days after administration
Procedure: SPF grade Wistar rats were selected and randomly divided into compound group 1 (skin applied with 5% R-IMPP solution), compound group 2 (skin applied with 5% PF 06446846 solution), and compound group 3 (skin applied with 5% SBC-115076 solution), compound group 4 (skin applied with 5% SBC-110736 solution), monoclonal antibody group 1 (subcutaneous injection of PCSK9 monoclonal antibody ab84041, 5 mg/kg·d), monoclonal antibody group 2 (subcutaneous injection of Evolocumab, 5 mg/kg·d), monoclonal antibody group 3 (subcutaneous injection of Alirocumab, 5 mg/kg·d), PCSK9 RNAi inhibitor group-1 (skin applied with 5% PCSK9 small interfering RNA-1 solution), PCSK9 RNAi inhibitor group-2 (skin applied with 5% PCSK9 small interfering RNA-2 solution), PCSK9 RNAi inhibitor group-3 (skin applied with 5% PCSK9 small interfering RNA-3 solution), and polypeptide group (subcutaneous injection of Abcam company ab32727, 3 mg/kg·d), positive control group (skin smeared with 5% minoxidil tincture), negative control group (smeared with 75% ethanol), model control group (smeared with 75% ethanol), 10 rats in each group, half male and half female.
Before the experiment, each rat selected an area of 4 cm×5 cm on the back to remove the hair as the observation area. Except for the negative control group, the rats were subcutaneously injected with testosterone propionate injection [[…]] at the back of the neck, once a day for 60 consecutive days to establish the SA model. […] At the same time, the rats in the corresponding drug group were smeared or subcutaneously injected on the skin of the observation area of the rats in the drug group, smeared 1 ml/(per time), twice a day, with an interval of 8 hours, and administered by subcutaneous injection, once a day. The negative control group and the model control group were smeared with excipient (75% ethanol solution), 1 mL one rat per time, twice a day, for 60 consecutive days.
10 hairs were extracted from the observation area on the back of each rat every 15 days after administration, and the hair length was measured with a vernier caliper. After 60 days of administration, the skin of the experimental observation area was taken for routine tissue dehydration, paraffin embedding, HE staining, and light microscopy to observe the histopathological changes of the rat skin hair follicles and sebaceous glands. Semi-quantitative analysis was carried out in each group. The grading standards are as follows: normal skin dermal tissue cells, subcutaneous hair follicles, and sebaceous glands were marked as “one”; no hyperplasia in the dermis, limited lesions of hair follicles and sebaceous glands, and no subcutaneous inflammation, marked as “±”; no obvious hyperplasia found in the dermis, obviously cystic follicles, no obvious hyperplasia found in the sebaceous glands, and no inflammation is recorded as “+”; segmental hyperplasia of skin and dermis was not obvious, a small number of hair follicles had cystic degeneration, and sebaceous glands had mild hyperplasia and hypertrophy. No obvious inflammation under the skin was recorded as “++”; the skin and dermis tissue cells had segmental hyperplasia of different degrees, some follicles degenerated, the size of the hair follicles was uneven, and there were no cells in the periphery. There was hyperplasia of sebaceous glands, and there were few nuclei in the hyperplasia glands. Individual rats had mild inflammatory hyperplasia under the skin, which was marked as “+++”.

rabbit ear acne model = experiment: Rabbit ear acne model induced by 2% coal tar; assay type: in vivo, New Zealand rabbits; settings: n = 10; for Skin thickness: rabbit ear epidermis; for Hair follicle area / Sebaceous gland diameter: rabbit ear; for Histological grading of acne: number of animals graded − / Histological grading of acne: number of animals graded 1+ / Histological grading of acne: number of animals graded 2+ / Histological grading of acne: number of animals graded 3+: right ear; for Histological grading of acne: number of animals graded −: grade 0: only loose keratinized cells in the infundibulum, without acne; for Histological grading of acne: number of animals graded 1+: grade 1: small amount of dense keratinized material, infundibulum not expanded; for Histological grading of acne: number of animals graded 2+: grade 2: moderately dense keratinized material extending to sebaceous glands, infundibulum expands; for Histological grading of acne: number of animals graded 3+: grade 3: extensive keratinized material, severe expansion of hair follicles
From the text: The inner side of the right ear of the rabbits was taken as the observation area, the left ear of all rabbits was used as the self-negative control, and 95% alcohol was applied. The inner side of the right ear of the model group and the treatment group were smeared with 2% coal tar (Alfa Aesar China Company, 2% coal tar solution made with 95% alcohol), and evenly applied to the opening of the ear canal on the inner side of the rabbit ear with a sterile cotton swab in a range of about 2 cm×2 cm, once a day, 0.5 mL each time. Then the previous application was wiped with warm water. […] 18 hours after the last coating, the samples were sacrificed, fixed in 10% formaldehyde, embedded in paraffin, and stained with HE for histopathological analysis.
Histological grading standard of the acne model: […], according to histology. Grade 0 means that there are only loose keratinized cells in the infundibulum, without acne forming the “1”; grade 1: the skin on the surface of the rabbit ear is red, or a small amount of dense keratinized material is seen in the infundibulum of the hair follicle, and the infundibulum is not expanded “+”; grade 2: moderately dense keratinized material is seen in the infundibulum of the hair follicle, and it extends to the sebaceous glands, with the proliferation of sebaceous gland ducts, the infundibulum expands by “2+”; grade 3: extensive keratinized material in the hair follicle. Tight keratin embolism in hair follicles causes severe expansion of hair follicles, obvious hyperplasia of sebaceous duct epithelium, skin bulges and scars, and some sebaceous glands degenerate into “3+”.
Histopathological changes were observed under a microscope, and the thickness of 5 different epidermises on a slice was measured with the Biomias99 image analysis system, and the average value was calculated; the area of two hair follicles with the same position and the most complete structure and the diameter of four sebaceous glands were detected, and the average value of each was calculated, and then the data of the left and right external auditory canals of each group were subtracted to obtain the difference in the thickness of the epidermis, the difference in hair follicle area and the diameter of the sebaceous gland in the left and right ears of each rabbit.

| Molecule | Skin hair follicles and sebaceous glands: number of rats graded ++ [1] | Skin hair follicles and sebaceous glands: number of rats graded ± [1] | Skin hair follicles and sebaceous glands: number of rats graded + [1] | Skin hair follicles and sebaceous glands: number of rats graded − [1] | Skin hair follicles and sebaceous glands: number of rats graded +++ [1] | 15 d hair length [1] | 30 d hair length [1] | 45 d hair length [1] | 60 d hair length [1] | Skin thickness (rabbit ear acne model) [mm] | Hair follicle area (rabbit ear acne model) | Sebaceous gland diameter (rabbit ear acne model) [mm] | Histological grading of acne: number of animals graded − (rabbit ear acne model) | Histological grading of acne: number of animals graded 1+ (rabbit ear acne model) | Histological grading of acne: number of animals graded 2+ (rabbit ear acne model) | Histological grading of acne: number of animals graded 3+ (rabbit ear acne model) |
| --- | --- | --- | --- | --- | --- | --- | --- | --- | --- | --- | --- | --- | --- | --- | --- | --- |
| O=C(c1ccc(-n2nnc3cccnc32)cc1)N(c1ncccc1Cl)[C@@H]1CCCNC1 [Compound group 2, PF 06446846] | 1 | 5 | 2 | 2 | 0 | 9.2* mm | 10.1* mm | 15.2* mm | 18.9* mm | 0.1968 ± 0.0121 | 0.2353 ± 0.0812* mm^2 | 0.0467 ± 0.0313 | 7 | 2 | 1 | 0 |
| B1 | 0 | 4 | 3 | 3 | 0 | 9.7* mm | 10.8* mm | 15.8* mm | 19.5* mm | 0.1532 ± 0.0156 | 0.1533 ± 0.0562* mm^2 | 0.0432 ± 0.0267 | 9 | 1 | 0 | 0 |
